Consider 1 compound from PMC9628809, “Icaritin Preparation from Icariin by a Special Epimedium Flavonoid-Glycosidase from Aspergillus sp.y848 Strain” (Journal of Microbiology and Biotechnology, 2022).

The assay relates to T1, Epimedium flavonoid-glycosidase.
T1 construct: native secreted enzyme purified from culture supernatant (DEAE-cellulose DE-52)
Put plainly: TLC scanning of substrate and products, Lineweaver-Burk plot. It counts as biochemical, Aspergillus sp. y848. As to conditions: 0.02 M acetate buffer pH 5.0, 40°C; icariin 12.5-50 mM.

The Km is the substrate concentration at which the rate is half of its maximum. Turning to `COc1ccc(-c2oc3c(CC=C(C)C)c(O[C@@H]4O[C@H](CO)[C@@H](O)[C@H](O)[C@H]4O)cc(O)c3c(=O)c2O[C@@H]2O[C@@H](C)[C@H](O)[C@@H](O)[C@H]2O)cc1` [icariin], the Km was 15.6 mM.
